Experimental data published in ChEMBL document CHEMBL1201862, “PubChem BioAssay data set” (2004).
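The compound was tested at five concentrations on cells cultured in 96-well plates, with a 48-hour exposure period. GI50: concentration for 50% inhibition of growth.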 The source made the active and inactive calls. Rule as the data show it: active = GI50 up to about 1.1 µM and inactive = higher.

What was measured:
Test in all cases: growth of human tumour cells (NCI), 48 h
A498 = system: A498
A549 = system: A549
COLO 205 = system: COLO 205
EKVX = system: EKVX
HCT-15 = system: HCT-15
LXFL 529 = system: LXFL 529
NCI-H460 = system: NCI-H460
OVCAR-5 = system: OVCAR-5
OVCAR-8 = system: OVCAR-8
RPMI-8226 = system: RPMI-8226
SF-268 = system: SF-268
SF-539 = system: SF-539
SK-MEL-28 = system: SK-MEL-28
SNB-75 = system: SNB-75
TK-10 = system: TK-10
UACC-257 = system: UACC-257
UO-31 = system: UO-31
Hs-578T = system: Hs-578T
MDA-MB-231 = system: MDA-MB-231
NCI/ADR-RES = system: NCI/ADR-RES

SMILES	GI50 (A498)	GI50 (A549)	GI50 (COLO 205)	GI50 (EKVX)	GI50 (HCT-15) [µM]	GI50 (LXFL 529)	GI50 (NCI-H460)	GI50 (OVCAR-5)	GI50 (OVCAR-8)	GI50 (RPMI-8226)	GI50 (SF-268)	GI50 (SF-539)	GI50 (SK-MEL-28)	GI50 (SNB-75)	GI50 (TK-10)	GI50 (UACC-257)	GI50 (UO-31)	GI50 (Hs-578T)	GI50 (MDA-MB-231)	GI50 (NCI/ADR-RES)
CCOC(=O)C(Cc1ccccc1)NC(=O)c1ccc(/N=N/N(C)C)cc1 (stereo not drawn)	> 100 µM (inactive)	> 100 µM (inactive)	> 100 µM (inactive)	> 100 µM (inactive)	> 100	> 100 µM (inactive)	> 100 µM (inactive)	> 100 µM (inactive)	> 100 µM (inactive)	> 100 µM (inactive)	> 100 µM (inactive)	> 100 µM (inactive)	> 100 µM (inactive)	> 100 µM (inactive)	> 100 µM (inactive)	> 100 µM (inactive)	> 100 µM (inactive)			
CN1c2ccccc2N(C(=O)c2ccccc2)C(CC(=O)O)c2cccn21 (stereo not drawn)	> 100 µM (inactive)	> 100 µM (inactive)	> 100 µM (inactive)	> 100 µM (inactive)	> 100	> 100 µM (inactive)	> 100 µM (inactive)	> 100 µM (inactive)	> 100 µM (inactive)	> 100 µM (inactive)	> 100 µM (inactive)	> 100 µM (inactive)	> 100 µM (inactive)	> 100 µM (inactive)	> 100 µM (inactive)	> 100 µM (inactive)	> 100 µM (inactive)			
COc1ccc2nccc(NCCCN3CCN(CCCNc4ccnc5ccc(OC)cc45)CC3)c2c1	2.58 µM (inactive)	0.296 µM (active)	0.261 µM (active)	1.34 µM (inactive)	11.8	0.179 µM (active)	0.296 µM (active)	0.826 µM (active)	0.612 µM (active)	0.264 µM (active)	0.432 µM (active)	0.173 µM (active)	1.09 µM (active)	0.543 µM (active)	5.31 µM (inactive)	1.04 µM (active)	8.13 µM (inactive)	0.237 µM (active)	0.357 µM (active)	18.2 µM (inactive)
CCc1cccc(C(C)C)c1NC(=O)C(=O)C1C(=O)NC(=O)NC1=O	> 100 µM (inactive)	> 100 µM (inactive)	> 100 µM (inactive)	> 100 µM (inactive)	> 100	> 100 µM (inactive)	> 100 µM (inactive)	> 100 µM (inactive)	> 100 µM (inactive)	> 100 µM (inactive)	> 100 µM (inactive)	> 100 µM (inactive)	> 100 µM (inactive)	69.5 µM (inactive)	> 100 µM (inactive)	> 100 µM (inactive)	> 100 µM (inactive)			
O=C(CSc1nc(-c2ccccc2)c(-c2ccccc2)[nH]1)NNC(=S)Nc1ccccc1	> 100 µM (inactive)	> 100 µM (inactive)	61.7 µM (inactive)	0.414 µM (active)	> 100	> 100 µM (inactive)	> 100 µM (inactive)	> 100 µM (inactive)	46.7 µM (inactive)	27.6 µM (inactive)	> 100 µM (inactive)	> 100 µM (inactive)	> 100 µM (inactive)	> 100 µM (inactive)	53.2 µM (inactive)	> 100 µM (inactive)	71.9 µM (inactive)			
